Reference: patent US12077503B2, “Substituted cyclic amides and their use as herbicides” (FMC CORPORATION, priority 2015, dated 2024)

What was measured:
Type in all cases: in vivo
[1] = tested on: ivy-leaved morning glory (Ipomoea hederacea); assay: Test G Pre-Emergence Protocol; details: Ipomoea, pre-emergence, 312 h, evaluated after 13 days
Procedure, shortened: (§1)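 Scores are visual damage ratings from 0 (no damage) to 100 (total plant kill), taken 13 days after treatment. Compound was sprayed one day post-sowing at 15.625, 62.5 or 250 g/ha in 50:50 acetone/water with 0.5% Tween 20.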

[2] = tested on: barnyardgrass (Echinochloa crus-galli); assay: Test G Pre-Emergence Protocol; details: Echinochloa crus-galli, pre-emergence, 312 h, evaluated after 13 days
Procedure, shortened: as §1

[3] = tested on: velvetleaf (Abutilon theophrasti); assay: Test G Pre-Emergence Protocol; details: Abutilon theophrasti, pre-emergence, 312 h, evaluated after 13 days
Procedure, shortened: as §1

[4] = tested on: giant foxtail (Setaria faberi); assay: Test G Pre-Emergence Protocol; details: Setaria faberi, pre-emergence, 312 h, evaluated after 13 days
Procedure, shortened: as §1

corn (Zea mays) [5] = assay: Test G Pre-Emergence Protocol; details: Zea mays, pre-emergence, 312 h, evaluated after 13 days
Procedure, shortened: as §1

[6] = tested on: redroot pigweed (Amaranthus retroflexus); assay: Test G Pre-Emergence Protocol; details: Amaranthus retroflexus, pre-emergence, 312 h, evaluated after 13 days
Procedure, shortened: as §1

[7] = tested on: ivy-leaved morning glory (Ipomoea hederacea); assay: Test G Post-Emergence Protocol; details: Ipomoea, post-emergence, 312 h, read-out: Morningglory, Ivy-leaved damage rating
Procedure, shortened: (§2)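 Foliar application was made 8 days after sowing, using an aqueous spray of the active in acetone/water (50:50) with 0.5% Tween 20, at doses of 15.625, 62.5 or 250 g/ha. Injury was assessed 13 days later, where 100 meant the plant was fully damaged.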

[8] = tested on: barnyardgrass (Echinochloa crus-galli); assay: Test G Post-Emergence Protocol; details: Echinochloa crus-galli, post-emergence, 312 h, read-out: Barnyardgrass damage rating
Procedure, shortened: as §2

[9] = tested on: velvetleaf (Abutilon theophrasti); assay: Test G Post-Emergence Protocol; details: Abutilon theophrasti, post-emergence, 312 h, read-out: Velvetleaf damage rating
Procedure, shortened: as §2

[10] = tested on: giant foxtail (Setaria faberi); assay: Test G Post-Emergence Protocol; details: Setaria faberi, post-emergence, 312 h, read-out: Foxtail, Giant damage rating
Procedure, shortened: as §2

corn (Zea mays) [11] = assay: Test G Post-Emergence Protocol; details: Zea mays, post-emergence, 312 h, read-out: Corn damage rating
Procedure, shortened: as §2

[12] = tested on: redroot pigweed (Amaranthus retroflexus); assay: Test G Post-Emergence Protocol; details: Amaranthus retroflexus, post-emergence, 312 h, read-out: Pigweed, Redroot damage rating
Procedure, shortened: as §2

[13] = 15.625 g ai/ha, evaluated after 13 days (100=total damage to plant; 0=no damage to plant)
[14] = 62.5 g ai/ha, evaluated after 13 days, 100=total damage to plant, 0=no damage to plant
[15] = 250 g ai/ha, evaluated after 13 days, 100=total damage to plant, 0=no damage to plant

What does the source list for `CN1C[C@H](c2cccc(C(F)(F)F)c2)[C@@H](C(=O)Nc2cnccc2F)C1=O` (racemic) [Compound 1745]?
pest or weed control at 15.625 g/ha ([1]; 15.625 g ai/ha, read-out: Morningglory, Ivy-leaved damage rating (100=total damage to plant; 0=no damage to plant)): 0%; pest or weed control at 62.5 g/ha ([1]; 62.5 g ai/ha, 100=total damage to plant, 0=no damage to plant, read-out: Morningglory, Ivy-leaved damage rating): 0%; pest or weed control at 250 g/ha ([1]; 250 g ai/ha, read-out: Morningglory, Ivy-leaved damage rating (100=total damage to plant; 0=no damage to plant)): 10%; pest or weed control at 15.625 g/ha ([2]; 15.625 g ai/ha, read-out: Barnyardgrass damage rating (100=total damage to plant; 0=no damage to plant)): 0%; pest or weed control at 62.5 g/ha ([2]; 62.5 g ai/ha, 100=total damage to plant, 0=no damage to plant, read-out: Barnyardgrass damage rating): 0%; pest or weed control at 250 g/ha ([2]; 250 g ai/ha, read-out: Barnyardgrass damage rating (100=total damage to plant; 0=no damage to plant)): 60%; pest or weed control at 15.625 g/ha ([3]; 15.625 g ai/ha, read-out: Velvetleaf damage rating (100=total damage to plant; 0=no damage to plant)): 0%; pest or weed control at 62.5 g/ha ([3]; 62.5 g ai/ha, 100=total damage to plant, 0=no damage to plant, read-out: Velvetleaf damage rating): 0%; pest or weed control at 250 g/ha ([3]; 250 g ai/ha, read-out: Velvetleaf damage rating (100=total damage to plant; 0=no damage to plant)): 0%; pest or weed control at 15.625 g/ha ([4]; 15.625 g ai/ha, read-out: Foxtail, Giant damage rating (100=total damage to plant; 0=no damage to plant)): 0%; pest or weed control at 62.5 g/ha ([4]; 62.5 g ai/ha, 100=total damage to plant, 0=no damage to plant, read-out: Foxtail, Giant damage rating): 10%; pest or weed control at 250 g/ha ([4]; 250 g ai/ha, read-out: Foxtail, Giant damage rating (100=total damage to plant; 0=no damage to plant)): 50%; plant injury at 15.625 g/ha (corn (Zea mays) [5]; 15.625 g ai/ha, read-out: Corn damage rating (100=total damage to plant; 0=no damage to plant)): 0%; plant injury at 62.5 g/ha (corn (Zea mays) [5]; 62.5 g ai/ha, 100=total damage to plant, 0=no damage to plant, read-out: Corn damage rating): 0%; plant injury at 250 g/ha (corn (Zea mays) [5]; 250 g ai/ha, read-out: Corn damage rating (100=total damage to plant; 0=no damage to plant)): 0%; pest or weed control at 15.625 g/ha ([6]; 15.625 g ai/ha, read-out: Pigweed, Redroot damage rating (100=total damage to plant; 0=no damage to plant)): 0%; pest or weed control at 62.5 g/ha ([6]; 62.5 g ai/ha, 100=total damage to plant, 0=no damage to plant, read-out: Pigweed, Redroot damage rating): 0%; pest or weed control at 250 g/ha ([6]; 250 g ai/ha, read-out: Pigweed, Redroot damage rating (100=total damage to plant; 0=no damage to plant)): 20%; pest or weed control at 15.625 g/ha [7, 13]: 0%; pest or weed control at 62.5 g/ha [7, 14]: 30%; pest or weed control at 250 g/ha [7, 15]: 40%; pest or weed control at 15.625 g/ha [8, 13]: 10%; pest or weed control at 62.5 g/ha [8, 14]: 70%; pest or weed control at 250 g/ha [8, 15]: 80%; pest or weed control at 15.625 g/ha [9, 13]: 0%; pest or weed control at 62.5 g/ha [9, 14]: 0%; pest or weed control at 250 g/ha [9, 15]: 0%; pest or weed control at 15.625 g/ha [10, 13]: 10%; pest or weed control at 62.5 g/ha [10, 14]: 60%; pest or weed control at 250 g/ha [10, 15]: 70%; plant injury at 15.625 g/ha (corn (Zea mays) [11]; [13]): 0%; plant injury at 62.5 g/ha (corn (Zea mays) [11]; [14]): 0%; plant injury at 250 g/ha (corn (Zea mays) [11]; [15]): 0%; pest or weed control at 15.625 g/ha [12, 13]: 0%; pest or weed control at 62.5 g/ha [12, 14]: 0%; pest or weed control at 250 g/ha [12, 15]: 20%
